Test results taken from patent publication US8188129B2, “(−)-enantiomer of the 2-[2-(1-chloro-cyclopropyl)-3-(2-chlorophenyl)-2-hydroxypropyl]-2,4-dihydro-[1,2,4]-triazole-3-thione” (Bayer Aktiengesellschaft, priority 1999, dated 2012).

Tests used:
Venturia inaequalis = assay: Venturia test (apple)/curative; conditions: curative spray, application rate 1 g/ha, evaluation 12 days after inoculation
Protocol: To test for curative activity, young plants are inoculated with an aqueous conidia suspension of the apple scab pathogen Venturia inaequalis. The plants remain in an incubation cabin at approximately 20° C. and 100% relative atmospheric humidity for 1 day and are then placed in a greenhouse.
The plants are then placed in a greenhouse at approximately 21° C. and a relative atmospheric humidity of approximately 90%.
Evaluation is carried out 12 days after the inoculation.

Pyricularia oryzae = type: in vivo; conditions: rice, protective spray, application rate 375 g/ha, evaluation 4 days after inoculation
Podosphaera leucotricha = assay: Podosphaera test (apple)/protective; type: in vivo; conditions: protective spray, application rate 10 g/ha, evaluation 10 days after inoculation
Cochliobolus sativus = Cochliobolus sativus test (barley)/protective; conditions: protective spray, evaluation 7 days after inoculation
Protocol: After the spray coating has dried on, the plants are sprayed with a conidia suspension of Cochiliobolus sativus. The plants remain in an incubation cabin at 20° C. and 100% relative atmospheric humidity for 48 hours.
The plants are placed in a greenhouse at a temperature of 20° C. and a relative atmospheric humidity of approximately 80%.
Evaluation is carried out 7 days after the inoculation.

Uncinula necator = assay: Uncinula test (vine)/protective; type: in vivo; conditions: protective spray, application rate 10 g/ha, evaluation 14 days after inoculation

SMILES | Efficacy in % (Venturia inaequalis) | Efficacy in % (Pyricularia oryzae) | Efficacy in % (Podosphaera leucotricha) | Efficacy in % (Cochliobolus sativus; application rate 125 g/ha) | Efficacy in % (Cochliobolus sativus; application rate 250 g/ha) | Efficacy in % (Uncinula necator)
OC(Cc1ccccc1Cl)(Cn1nc[nH]c1=S)C1(Cl)CC1 (racemic) [(Ia), racemic 2-[2-(1-chloro-cyclopropyl)-3-(2-chloro-phenyl)-2-hydroxypropyl]-2,4-dihydro-[1,2,4]-triazole-3-thione] | 79% | 30% | 60% | 59% | 66% | 47%
OC(Cc1ccccc1Cl)(Cn1nc[nH]c1=S)C1(Cl)CC1 (single isomer, unassigned; (-)) [(I), (−)-enantiomer of 2-[2-(1-chloro-cyclopropyl)-3-(2-chlorophenyl)-2-hydroxypropyl]-2,4-dihydro-[1,2,4]-triazole-3-thione] | 91% | 90% | 78% | 75% | 75% | 84%
